Reference: article PMC8913300, “Two distinct classes of cochaperones compete for the EEVD motif in heat shock protein 70 to tune its chaperone activities” (The Journal of Biological Chemistry, 2022)

Key:
Hsp72–DnaJB4 complex [1] = assay: CHIP inhibition of DnaJB4-stimulated Hsp72 ATPase activity; type: biochemical; details: 25 μM CHIP, 40-fold excess relative to DnaJB4 (625 nM)
Experimental: ATPase assays were carried out using the malachite green assay as described ([14], [83]). In brief, 1 μM Hsp72 and various concentrations of DnaJB4 were added to clear 96-well plates, and the reactions were initiated by addition of 2.5 mM ATP. Reactions were allowed to proceed for 1 h at 37 °C, after which they were developed using malachite green reagent and quenched with sodium citrate. Plate absorbance was measured at 620 nm, and a standard curve of sodium phosphate was used to convert the absorbance values to pmol ATP/μM Hsp72/min. Vmax and Km, app were derived as fit parameters to a modified Michaelis–Menten model (ATPase rate=Vmax∗[DnaJB4]/(Km, app+[DnaJB4])) where Vmax reflects the maximal increased ATP hydrolysis conferred by DnaJB4 binding and Km,app represents the half-maximal concentration of DnaJB4 binding to and stimulating the ATPase activity of Hsp72.

Hsp72–DnaJB4 complex [2] = assay: Luciferase refolding by Hsp72/DnaJB4 in the presence of TPR cochaperones; type: biochemical; details: 1 μM Hsp72, 100 nM denatured luciferase, 120 nM DnaJB4; CHIP titration or 10 μM TPR protein; 1 h at 37 °C
Experimental: Experiments were performed as described ([14]). Briefly, Renilla luciferase (Promega) was denatured in 8 M GdnHCl for 2 h at room temperature. Hsp72 (1 μM) and denatured luciferase (100 nM) were diluted into a working concentration in buffer containing an ATP regenerating system (23 mM Hepes, 120 mM KAc, 1.2 mM MgAc, 15 mM DTT, 61 mM creatine phosphate, 35 units/ml creatine kinase, and 5 ng/μl bovine serum albumin, pH 7.4). A titration series of DnaJB4 was added, and the reaction was initiated with the addition of 2.5 mM ATP. For competition assays with DnaJB4, complexes of Hsp72 (1 μM), denatured luciferase (100 nM), and DnaJB4 (120 nM) were incubated with either a titration of CHIP or 10 μM of indicated TPR protein. In all cases, the assay was allowed to incubate for 1 h at 37 °C in white, 96-well flat-bottom plates (Corning 3990). Luminescence was measured using the SteadyGlo luminescence reagent (Promega), and percent refolded luciferase was calculated using a standard curve of 100 to 0 nM native luciferase.

DnaJB4 = target: T1, DnaJB4 (Homo sapiens, UniProt Q9UDY4); assay: Fluorescence polarization saturation binding of Hsp72 tracer to DnaJB4; details: Fig. 8A right; FP saturation binding, 20 nM tracer, JDP binding buffer pH 8.0, 30 min room temperature; mean with 95% confidence interval, four replicates
T1 construct: 6-His with TEV-cleavable linker (N, cleaved yes); made in house; host or cells: Escherichia coli BL21 (DE3) Rosetta
T1 sequence (Q9UDY4 whole entry): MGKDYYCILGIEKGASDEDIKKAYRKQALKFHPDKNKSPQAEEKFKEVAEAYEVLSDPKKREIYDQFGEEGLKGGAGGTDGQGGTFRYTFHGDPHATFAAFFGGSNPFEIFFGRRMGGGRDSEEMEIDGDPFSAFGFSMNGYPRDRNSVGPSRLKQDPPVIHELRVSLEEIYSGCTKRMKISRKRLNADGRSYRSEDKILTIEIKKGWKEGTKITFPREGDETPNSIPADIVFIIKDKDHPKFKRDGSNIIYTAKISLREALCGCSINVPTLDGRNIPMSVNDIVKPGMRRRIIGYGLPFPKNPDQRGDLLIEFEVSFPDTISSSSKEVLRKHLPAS
Experimental: (§1) All FP experiments were performed in 384-well, black, low-volume, round-bottom plates at a final assay volume of 18 μl (Corning 4511). Polarization values in millipolarization units (mP) were measured at an excitation wavelength of 485 nm and an emission wavelength of 525 nm, with 100 flashes per read using a Spectramax M5 plate reader (Molecular Devices). All experiments were performed 2 times in quadruplicate. Experimental data were analyzed using GraphPad Prism 9. Saturation binding data were background subtracted, and curves were fit using the model [Agonist] versus response (three parameters). For competition experiments, data were background subtracted to tracer alone and normalized to DMSO control to determine relative tracer displacement.
(§2) A sample of 20 nM Hsp72 tracers (FITC-Ahx-GSGPTIEEVD or FITC-Ahx-GSGPEIEEVD) was incubated with various concentrations of DnaJB4 (WT or QPD mutant) or CHIP in 2× dilutions (final [protein] = 110–0.013 μM) in binding buffer (JDP binding buffer = 50 mM Tris, 15 mM NaCl, 1 mM DTT, 0.01% Triton X-100, pH 8.0; CHIP binding buffer = 25 mM Hepes, 50 mM KCl, 0.01% Triton X-100, pH 7.4). The plate was covered from light and allowed to incubate at room temperature for 30 min prior to reading.

DnaJB4 QPD mutant = target: T2, DnaJB4 QPD mutant (Homo sapiens, UniProt Q9UDY4, H32Q); assay: Fluorescence polarization saturation binding of Hsp72 tracer to DnaJB4 QPD mutant; details: Fig. 2D, FP saturation binding, 20 nM tracer, 30 min room temperature, mean with 95% confidence interval, four replicates
T2 construct: 6-His with TEV-cleavable linker (N, cleaved yes); made in house; host or cells: Escherichia coli BL21 (DE3) Rosetta
T2 sequence (Q9UDY4 whole entry H32Q): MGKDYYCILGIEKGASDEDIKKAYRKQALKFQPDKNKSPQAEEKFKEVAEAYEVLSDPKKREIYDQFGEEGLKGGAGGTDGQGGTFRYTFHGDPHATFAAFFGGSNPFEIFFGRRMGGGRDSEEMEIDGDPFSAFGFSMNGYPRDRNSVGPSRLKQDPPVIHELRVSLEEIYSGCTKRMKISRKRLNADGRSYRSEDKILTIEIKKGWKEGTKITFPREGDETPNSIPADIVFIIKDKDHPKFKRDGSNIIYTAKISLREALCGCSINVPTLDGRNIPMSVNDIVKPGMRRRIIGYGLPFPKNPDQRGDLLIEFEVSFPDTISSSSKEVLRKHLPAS
Experimental: as §1, §2

inhibition of DnaJB4-stimulated ATPase activity (Hsp72–DnaJB4 complex [1]) | effect on client (luciferase) refolding by Hsp72–DnaJB4 (Hsp72–DnaJB4 complex [2]) | Kd (DnaJB4) [nM] | Kd (DnaJB4 QPD mutant) [nM] | Compound
significant inhibition | potent inhibitor |  |  | CHIP: C terminus of Hsc70 interacting protein, E3 ubiquitin ligase, TPR cochaperone, recombinant human
 |  | 1970 ± 280 | 2440 ± 280 | CC[C@H](C)[C@H](NC(=O)[C@@H](NC(=O)[C@@H]1CCCN1C(=O)CNC(=O)[C@H](CO)NC(=O)CNC(=O)CCCCCNC(=S)Nc1ccc2c(c1)C(=O)OC21c2ccc(O)cc2Oc2cc(O)ccc21)[C@@H](C)O)C(=O)N[C@@H](CCC(=O)O)C(=O)N[C@@H](CCC(=O)O)C(=O)N[C@H](C(=O)N[C@@H](CC(=O)O)C(=O)O)C(C)C [Hsp72 tracer]
